Laboratory results published in patent US20230126447A1, “OCULAR DRUG DEPOT FOR COMPLEMENT-MEDIATED DISORDERS” (priority 2020, published 2023).
Where two headings read alike, the source gives them in different places.

Assay: Ocular tissue and plasma pharmacokinetics, 15 mg/kg single and BID oral, Dutch Belted rabbits (Example 3/5)
Type: in vivo
Conditions: Dutch Belted, rabbit, 15 mg/kg; for MRT inf / MRT last / half-life / Cmax: Iris-Ciliary Body; for Cmax: read-out: Cmax
Experimental: Study design including group designation and dose levels are outlined in Table 4. […] Fifteen Dutch Belted and 5 New Zealand White rabbits were used as un-dosed controls. […] The dose volume was 5 mL/kg/dose for all groups. Safety was assessed with toxicological and ophthalmic examinations including slit lamp biomicroscopy, indirect ophthalmoscopy, rebound tonometry, and ultrasonic corneal pachymetry.
Analyst® software (Version 1.6.2) was used to capture the LC-MS/MS data and integrate the peak areas. Calibration standards and QCs were prepared in a blank solution of 75%:25% acetonitrile:water (v:v), ranging from 10 ng/mL to 10,000 ng/mL. Matrix matched standard and QC samples were prepared by mixing 2 μL of standard or QC sample above with 18 μL of appropriate ocular tissue or plasma. The final calibration standards ranged from 1 ng/mL to 1000 ng/mL. All plasma, retina, choroid-RPE, optic nerve, and vitreous humor samples were analyzed in a single run. Iris-ciliary body samples were analyzed in two runs due to a need for sample dilution. […] Dilution QCs were prepared at 5000 ng/mL where appropriate. Two sets of standards were used to bracket the analytical run at the beginning and end of the run. Three sets of QCs were included the analytical runs. All concentrations in ocular matrices are reported as ng/g based on the assumed density of 1 g/mL.
1, 6, 24, 96, 168, and 240 hours post-dose on Day 15, with the eyes collected at the same time as blood sampling. A single blood sample was taken from Groups 4 and 5 at sacrifice. Plasma, vitreous humor (VH), retina, choroid-retina pigmented epithelium (Choroid-RPE), optic nerve (ON), and iris-ciliary body (I-CB) were analyzed by LC-MS/MS to quantify test article concentrations. The lower limit of quantitation (LLOQ) in plasma and vitreous humor was 1.0 ng/mL. The LLOQ was 6.0 ng/g in retina, Choroid-RPE, and I-CB and the optic nerve LLOQ was 15 ng/g, assuming tissue density of 1 g/mL where relevant.
Study design including group designation and dose levels are outlined in Table 18.

[1] = iris-ciliary body, po, DB rabbit, 15 mg/kg BID, Day 15
[2] = iris-ciliary body, po, DB rabbit, 15 mg/kg single dose, Day 1

Question: What does the source list for `CC(=O)c1nn(CC(=O)N2C[C@H](F)C[C@H]2C(=O)Nc2cccc(Br)n2)c2ccc(-c3cnc(C)nc3)cc12` [Compound 1, (2S,4R)-1-(2-(3-Acetyl-5-(2-methylpyrimidin-5-yl)-1H-indazol-1-yl)acetyl)-N-(6-bromopyridin-2-yl)-4-fluoropyrrolidine-2-carboxamide]?
Answer: concentration at 0 h (iris-ciliary body, po, DB rabbit, 15 mg/kg BID oral, Day 15, 0 h, read-out: Mean Iris-Ciliary Body concentration): 2900 ng/g; concentration at 1 h (iris-ciliary body, po, DB rabbit, 15 mg/kg BID oral, Day 15, 1 h, read-out: Mean Iris-Ciliary Body concentration): 4920 ng/g; concentration at 6 h (iris-ciliary body, po, DB rabbit, 15 mg/kg BID oral, Day 15, 6 h, read-out: Mean Iris-Ciliary Body concentration): 3510 ng/g; concentration at 24 h (iris-ciliary body, po, DB rabbit, 15 mg/kg BID oral, Day 15, 24 h, read-out: Mean Iris-Ciliary Body concentration): 1640 ng/g; concentration at 96 h (iris-ciliary body, po, DB rabbit, 15 mg/kg BID oral, Day 15, 96 h, read-out: Mean Iris-Ciliary Body concentration): 1010 ng/g; concentration at 168 h (iris-ciliary body, po, DB rabbit, 15 mg/kg BID oral, Day 15, 168 h, read-out: Mean Iris-Ciliary Body concentration): 612 ng/g; concentration at 240 h (iris-ciliary body, po, DB rabbit, 15 mg/kg BID oral, Day 15, 240 h, read-out: Mean Iris-Ciliary Body concentration): 408 ng/g; concentration at 1 h (iris-ciliary body, po, DB rabbit, 15 mg/kg single oral dose, Day 1, 1 h, read-out: Mean Iris-Ciliary Body concentration): 1010 ng/g; concentration at 6 h (iris-ciliary body, po, DB rabbit, 15 mg/kg single oral dose, Day 1, 6 h, read-out: Mean Iris-Ciliary Body concentration): 528 ng/g; concentration at 24 h (iris-ciliary body, po, DB rabbit, 15 mg/kg single oral dose, Day 1, 24 h, read-out: Mean Iris-Ciliary Body concentration): 300 ng/g; concentration at 96 h (iris-ciliary body, po, DB rabbit, 15 mg/kg single oral dose, Day 1, 96 h, read-out: Mean Iris-Ciliary Body concentration): 57.9 ng/g; concentration at 168 h (iris-ciliary body, po, DB rabbit, 15 mg/kg single oral dose, Day 1, 168 h, read-out: Mean Iris-Ciliary Body concentration): 27.1 ng/g; concentration at 240 h (iris-ciliary body, po, DB rabbit, 15 mg/kg single oral dose, Day 1, 240 h, read-out: Mean Iris-Ciliary Body concentration): 33.6 ng/g; MRT inf [1]: 81.5 h; MRT last [1]: 76.2 h; half-life [1]: 107 h; Cmax [1]: 4920 ng/g; MRT inf [2]: 69 h; MRT last [2]: 46.2 h; half-life [2]: 56 h; Cmax [2]: 1010 ng/g; concentration at 0 h (plasma, po, DB rabbit, 15 mg/kg BID oral, Day 15, 0 h, read-out: Mean plasma concentration): 55.2 ng/mL; concentration at 1 h (plasma, po, DB rabbit, 15 mg/kg BID oral, Day 15, 1 h, read-out: Mean plasma concentration): 845 ng/mL; concentration at 6 h (plasma, po, DB rabbit, 15 mg/kg BID oral, Day 15, 6 h, read-out: Mean plasma concentration): 92.2 ng/mL; concentration at 24 h (plasma, po, DB rabbit, 15 mg/kg BID oral, Day 15, 24 h, read-out: Mean plasma concentration): 5.6 ng/mL; concentration at 96 h (plasma, po, DB rabbit, 15 mg/kg BID oral, Day 15, 96 h, read-out: Mean plasma concentration): 3.19 ng/mL; concentration at 1 h (plasma, po, DB rabbit, 15 mg/kg single oral dose, Day 1, 1 h, read-out: Mean plasma concentration): 318 ng/mL; concentration at 6 h (plasma, po, DB rabbit, 15 mg/kg single oral dose, Day 1, 6 h, read-out: Mean plasma concentration): 33.7 ng/mL; concentration at 24 h (plasma, po, DB rabbit, 15 mg/kg single oral dose, Day 1, 24 h, read-out: Mean plasma concentration): 25.4 ng/mL; concentration at 1 h (retina, oral, DB rabbits, Day 1, 15 mg/kg single dose, 1 hr, read-out: Mean Retina Concentration): 145 ng/g; concentration at 6 h (retina, oral, DB rabbits, Day 1, 15 mg/kg single dose, 6 hr, read-out: Mean Retina Concentration): 29.6 ng/g; concentration at 24 h (retina, oral, DB rabbits, Day 1, 15 mg/kg single dose, 24 hr, read-out: Mean Retina Concentration): 24.7 ng/g; concentration at 0 h (retina, oral, DB rabbits, Day 15, 15 mg/kg BID, 0 hr, read-out: Mean Retina Concentration): 114 ng/g; concentration at 1 h (retina, oral, DB rabbits, Day 15, 15 mg/kg BID, 1 hr, read-out: Mean Retina Concentration): 576 ng/g; concentration at 6 h (retina, oral, DB rabbits, Day 15, 15 mg/kg BID, 6 hr, read-out: Mean Retina Concentration): 237 ng/g; concentration at 24 h (retina, oral, DB rabbits, Day 15, 15 mg/kg BID, 24 hr, read-out: Mean Retina Concentration): 74.3 ng/g; concentration at 96 h (retina, oral, DB rabbits, Day 15, 15 mg/kg BID, 96 hr, read-out: Mean Retina Concentration): 28.1 ng/g; concentration at 168 h (retina, oral, DB rabbits, Day 15, 15 mg/kg BID, 168 hr, read-out: Mean Retina Concentration): 36.5 ng/g; concentration at 240 h (retina, oral, DB rabbits, Day 15, 15 mg/kg BID, 240 hr, read-out: Mean Retina Concentration): 25.3 ng/g
